# Experimental data published in paper PMC6746691 (European Journal of Drug Metabolism and Pharmacokinetics, 2019).
# Tests used:
# [1] = test system: suspected/confirmed staphylococcal or other Gram-positive infection; assay: Clinical effectiveness; type: in vivo, hospitalized adults (patients); conditions: for Length of hospitalization: median [min–max]
# [2] = Vancomycin treatment safety outcomes; type: in vivo, hospitalized adults (patients); conditions: for Neutropenia: absolute neutrophil counts < 1000/μL
# [3] = Vancomycin clinical pharmacokinetics and serum concentrations; conditions: for AUC per TDM adjusted dose / AUC per initial dose: NONMEM; for AUC per TDM adjusted dose / t1/2 / AUC per initial dose / Initial vancomycin serum concentration, Peak / Initial vancomycin serum concentration, Trough-2 / Initial vancomycin serum concentration, Trough-1: median [IQR]; for Cl / Ke / Vd / t1/2: at treatment initiation; for Cl / Ke / Vd / Post-dose adjustment trough concentration: mean ± SD, SD; for AUC per initial dose: pre-TDM dose; for Initial vancomycin serum concentration, Peak / Initial vancomycin serum concentration, Trough-2 / Initial vancomycin serum concentration, Trough-1: pre-TDM; for Initial vancomycin serum concentration, Peak: 1–2 h post fourth dose infusion; for Initial vancomycin serum concentration, Trough-2: 30 min before the fifth dose; for Initial vancomycin serum concentration, Trough-1: 30 min before the fourth dose
# [4] = peak–trough-monitoring group (n = 30)
# [5] = trough-only-monitoring group (n = 35)
compound,measurement,setting,value
CN[C@H](CC(C)C)C(=O)N[C@H]1C(=O)N[C@@H](CC(N)=O)C(=O)N[C@H]2C(=O)N[C@H]3C(=O)N[C@H](C(=O)N[C@H](C(=O)O)c4cc(O)cc(O)c4-c4cc3ccc4O)[C@H](O)c3ccc(c(Cl)c3)Oc3cc2cc(c3O[C@@H]2O[C@H](CO)[C@@H](O)[C@H](O)[C@H]2O[C@H]2C[C@](C)(N)[C@H](O)[C@H](C)O2)Oc2ccc(cc2Cl)[C@H]1O [vancomycin],Therapeutic failure,[1]; [4],7 (23.3) n (%)
same,Length of hospitalization,[1]; [4],15.5 [4–68.9] days
same,Therapeutic failure,[1]; [5],18 (51.4) n (%)
same,Therapeutic cure,"[1]; trough-only-monitoring group (n = 35), clinical and/or microbiologic cure, intention-to-treat",17 (48.6) n (%)
same,Length of hospitalization,[1]; [5],20 [6–117] days
same,All-cause mortality,[2]; [4],2 (6.7) n (%)
same,Neutropenia,[2]; [4],1 (3.3) n (%)
same,All-cause mortality,[2]; [5],3 (8.6) n (%)
same,Neutropenia,[2]; [5],3 (8.6) n (%)
same,AUC per TDM adjusted dose,[3]; [4],223 [168.82] mg*h/L
same,AUC per TDM adjusted dose,[3]; [5],270 [156.02] mg*h/L
same,Cl,[3]; [4],4.24 ± 2.20 L/h
same,Ke,[3]; [4],0.089 ± 0.051 h⁻¹
same,Vd,[3]; [4],51.14 ± 9.96 L
same,t1/2,[3]; [4],7.23 [9.75] h
same,Cl,[3]; [5],4.15 ± 2.22 L/h
same,Ke,[3]; [5],0.094 ± 0.05 h⁻¹
same,Vd,[3]; [5],48.5 ± 10.7 L
same,t1/2,[3]; [5],8.01 [11.12] h
same,Post-dose adjustment trough concentration,[3]; [4],15.6 ± 3.49 mg/L
same,AUC per initial dose,[3]; [4],228 [273.01] mg*h/L
same,AUC per initial dose,[3]; [5],227 [195.6] mg*h/L
same,"Initial vancomycin serum concentration, Peak",[3]; [4],27.9 [17.8] mg/L
same,"Initial vancomycin serum concentration, Peak",[3]; [5],25 [10] mg/L
same,"Initial vancomycin serum concentration, Trough-2",[3]; [4],8.9 [15.1] mg/L
same,"Initial vancomycin serum concentration, Trough-2",[3]; [5],10.6 [10.5] mg/L
same,"Initial vancomycin serum concentration, Trough-1",[3]; [4],8.4 [12.9] mg/L
same,"Initial vancomycin serum concentration, Trough-1",[3]; [5],9 [8.3] mg/L
same,Post-dose adjustment trough concentration,[3]; [5],16.8 ± 3.09 mg/L
